Experimental data: PubChem BioAssay (NCI)
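Exposure lasted 48 hours, with cells grown in 96-well plates and compounds tested at five concentrations. Here, GI50 denotes the concentration required for 50% inhibition of growth. TGI marks complete inhibition of growth.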

Experiments:
Test in all cases: growth of human tumour cells (NCI), 48 h
HCT-15 colon = test system: HCT-15 colon
HOP-92 NSCLC = test system: HOP-92 NSCLC
OVCAR-8 ovarian = test system: OVCAR-8 ovarian
RPMI-8226 leukemia = test system: RPMI-8226 leukemia
RXF 393 renal = test system: RXF 393 renal
SK-MEL-2 melanoma = test system: SK-MEL-2 melanoma
SN12C renal = test system: SN12C renal
SW-620 colon = test system: SW-620 colon
TK-10 renal = test system: TK-10 renal
UACC-257 melanoma = test system: UACC-257 melanoma

Compound | TGI (HCT-15 colon) | TGI (HOP-92 NSCLC) | TGI (OVCAR-8 ovarian) | TGI (RPMI-8226 leukemia) | TGI (RXF 393 renal) | TGI (SK-MEL-2 melanoma) | TGI (SN12C renal) | TGI (SW-620 colon) | TGI (TK-10 renal) | TGI (UACC-257 melanoma) | GI50 (HCT-15 colon) | GI50 (HOP-92 NSCLC) | GI50 (OVCAR-8 ovarian) | GI50 (RPMI-8226 leukemia) | GI50 (RXF 393 renal) | GI50 (SK-MEL-2 melanoma) | GI50 (SN12C renal) | GI50 (SW-620 colon) | GI50 (TK-10 renal) | GI50 (UACC-257 melanoma)
O=C(Cc1ccccc1)NN1C(=O)C(Cl)C1c1cccc([N+](=O)[O-])c1 (centres undefined) | > 100 µM | 30.5 µM | > 100 µM | 47.8 µM | 93 µM | > 73.8 µM | > 100 µM | > 89.1 µM | > 100 µM | > 100 µM |  |  |  |  |  |  |  |  |  | 
O=C1c2cccnc2C(=O)c2c1c(C(=O)OCCc1ccccn1)c1ccccn21 | 1.46 µM | 5.58 µM | 2.12 µM |  | 1.4 µM | 3.47 µM | 1.59 µM | > 44.8 µM | 2.19 µM | 0.583 µM | 0.0145 µM | 0.121 µM | 0.0589 µM | 0.219 µM | 0.124 µM | 0.351 µM | 0.0261 µM | < 0.01 µM | 0.34 µM | 0.152 µM
CCC1c2cc3n(c(=O)c2COC1O)Cc1c-3nc2ccccc2c1Cl (centres undefined) | > 100 µM | > 100 µM | > 100 µM | > 100 µM | > 100 µM | > 100 µM | > 100 µM | > 100 µM | > 100 µM | > 100 µM |  |  |  |  |  |  |  |  |  | 
NC(=S)N/N=C(\CCC(=O)Nc1ccccc1[N+](=O)[O-])CC(=O)c1ccco1 | > 100 µM | > 100 µM | > 100 µM | > 100 µM | > 100 µM | > 100 µM | > 100 µM | > 100 µM | > 100 µM | > 100 µM |  |  |  |  |  |  |  |  |  | 
CCN1C(=O)N(CC)C2C1NC(=S)N2/N=C/C=C/c1ccccc1OC (centres undefined) | > 100 µM | 27.1 µM | > 100 µM | 30.9 µM | > 100 µM | > 100 µM | > 100 µM | > 100 µM | > 100 µM | > 100 µM | 0.0341 µM | 0.0269 µM | 0.0378 µM | 0.0431 µM | 0.0521 µM | 1.1 µM | 0.0494 µM | 0.0475 µM | 30.9 µM | > 100 µM
CCCCN(CC)CCCCCCCCCCN1CCCc2cc(OC)ccc21 | 13.6 µM | 6.76 µM | 13.2 µM | 4.79 µM | 4.93 µM | 4.15 µM | 15.3 µM | 6.24 µM | 3.91 µM | 9.2 µM | 3.3 µM | 2.19 µM | 3.92 µM | 2.15 µM | 2.34 µM | 1.95 µM | 3.36 µM | 2.23 µM | 1.89 µM | 3.34 µM
CC(C)OCc1cc(CN2CCN(c3cccc(Cl)c3)CC2)c(O)c2ncccc12 | 17.6 µM | 19.4 µM | 11.6 µM | 13.3 µM | 20.2 µM | 7.07 µM | 15.6 µM | 17.4 µM | 21 µM | 9.58 µM | 0.153 µM | 1.43 µM | 0.367 µM | 0.558 µM | 2.87 µM | 1.74 µM | 0.917 µM | 0.852 µM | 0.837 µM | 1.56 µM
